The text below walks through data of patent publication US20250281474A1, “PHARMACEUTICAL COMPOSITION FOR TREATING COGNITIVE DECLINE OR FOR TREATING OVERWEIGHTNESS OR OBESITY” (University of the Ryukyus, priority 2021, published 2025).

The structures appear in SMILES notation.

Common to all, as to type: in vivo, mouse
Experiment [1] is described as follows: Appearance and body weight of ob/ob mice. The conditions noted are these: ob/ob mice fed perampanel-containing diet 5 mg/kg body weight from 8 to 12 weeks of age. The protocol:
ob/ob mice and their littermates with wild-type traits were obtained as the offspring of ob+/− mice. These mice were fed freely and some of the ob/ob mice were fed perampanel-containing diet at 5 mg/kg body weight from 8 to 12 weeks of age. The appearance and body weight of these mice were compared at 12 weeks of age.

The next experiment concerns HFD-fed mice. Briefly: Five-trial social memory assay, HFD-fed mice. As to conditions: HFD-fed mice with PER treatment. The protocol: Five-trial social tests were performed as previously described (19). In summary, subject mice with CD, HFD, and HFD with PER treatment were housed individually starting 7 days before the study to establish territory dominance. On the day of the test, a female mouse was presented in the cages of subject male mice, which is a subject (FIG. 2G), and 5 min trials were performed 4 times in succession at 10 min intervals. In the fifth trial, a novel female mouse was presented (FIG. 2G) and the duration of the social investigation was recorded.

The subject of experiment [2] is AMPAR subunits GluA1-4 mRNA. In words: qRT-PCR of AMPAR/NMDAR subunits in hippocampal regions, Ca2+ permeability index. On the procedure: After preparing and collecting hippocampal slices, CA1, CA2, CA3, DG, and EC regions were separated from hippocampal slices using a dissection knife from […] background mice and ob/ob mice, respectively. The CA1, CA2, CA3, DG, and EC regions of mice were separated and immediately lysed in disposable homogenization tube BioMasher2 (trademark) (Nippi, Tokyo, Japan) using 0.5 mL of TRIzol RNA isolation reagent (Thermo Fisher Scientific, Wilmington, DE). Total RNA was individually extracted from each region according to the remaining protocol of the TRIzol RNA isolation reagent provided by the manufacturer (Thermo Fisher Scientific, Wilmington, DE). 1 μg of total RNA was reverse transcribed using PrimeScript RT Reagent Kit (Takara, Shiga, Japan). An aliquot of the obtained cDNA was diluted 1:10 and added to a master mix of TB Green Premix ExTaq (Takara, Shiga, Japan), and real-time PCR was performed using a 7500 Fast Real-Time PCR system (Applied Biosystems, Foster City, CA, USA) according to the manufacturer's instructions. The conditions for real-time PCR were as follows. 40 cycles of 95° C. for 30 seconds, then 95° C. for 5 seconds and 60° C. for 34 seconds. The fluorescence intensity was measured for each annealing step and the threshold cycle time was determined using 7500 software. In addition, relative expression levels of β-actin were normalized to respective controls (vehicle group). The relative expression level of the target gene in each sample was determined using a standard curve and further normalized to the expression level of R-actin of the same sample. The sequences of primers and probes for these genes are shown in Supplemental Table 2. The “ratio of GluA2 mRNA amount/(GluA1+GluA3+GluA4 mRNA amount” was used as a Ca^2+ permeability index.
GluA2 is edited at the Q/R site within the reentry M2 membrane loop region by adenosine deaminase (ADAR2), which acts on RNA type 2 involved in editing double-stranded RNA from adenosine (A) to inosine (I) (review, refer to 15, 16 and 17). Attempts were made to determine real-time quantitative reverse transcription polymerase chain reaction (qRT-PCR), subunit composition of AMPAR and NMDAR. Total RNA in hippocampal subregions (CA1, CA3, DG, EC) was separated, and quantitative analysis of mRNA of GluA1, GluA2, GluA3, and GluA4 for AMPAR, and GluN1, GluN2A, GluN2B, and GluN2C for NMDAR was performed by qRT-PCR. […] Based on the mRNA amount of each subunit, the ratio of GluA2 to other GluA subunits (FIG. 2B) was determined. The ratio was defined as a Ca^2+ permeability index.

As to `N#Cc1ccccc1-c1cc(-c2ccccn2)cn(-c2ccccc2)c1=O` [PER, 3-(2-cyanophenyl)-5-(2-pyridyl)-1-phenyl-1,2-dihydropyridine-2-one], the “overweight / appearance at 12 weeks of age” value in experiment [1] was “overweight was prevented”. For the same compound, the “social memory (five-trial social interaction test)” value in the experiment with HFD-fed mice is reported as “restored social memory disturbance”. The “Ca2+ permeability index CA1” value in experiment [2] (GluA2 mRNA/(GluA1+GluA3+GluA4 mRNA), HFD-fed mice with PER, CA1, N=5) is 0.29 ± 0.11 (N = 5). Moreover, the “Ca2+ permeability index CA3” value in experiment [2] (GluA2 mRNA/(GluA1+GluA3+GluA4 mRNA), HFD-fed mice with PER, CA3, N=5) was 0.26 ± 0.10 (N = 5). In addition, the “Ca2+ permeability index DG” value in experiment [2] (GluA2 mRNA/(GluA1+GluA3+GluA4 mRNA), HFD-fed mice with PER, DG, N=5) is reported as 0.22 ± 0.06 (N = 5). For the same compound, the “Ca2+ permeability index EC” value in experiment [2] (GluA2 mRNA/(GluA1+GluA3+GluA4 mRNA), HFD-fed mice with PER, EC, N=5) is on record as 0.30 ± 0.05(N = 5). Besides, the “Ca2+ permeability index via CA1, CA3, DG, EC (reduced by HFD)” value in experiment [2] (HFD-fed mice, PER administration, N=5) is “returned to CD-fed mouse levels”. The “GluA2 mRNA expression in CA1 (qRT-PCR)” value in experiment [2] (mice fed HFD with PER, p<0.05) is listed as “significant increase”.
